# Reference: US20240324599A1, “PESTICIDAL ENZYMES FOR USE ON NEMATODES, INSECTS, AND MOLLUSKS” (priority 2023, published 2024)
# Tested on: corn
# Assay: Field trial: esterase on urea with or without NBPT, corn yield
# Type: in vivo
# Conditions: corn, NBPT 64 fl oz/ton on Urea (135 lb/A Nitrogen), no EstA
# Description: Esterase A (EstA) from Bacillus subtilis (SEQ ID NO:254) was produced via fermentation of a recombinantly produced enzyme in Bacillus subtilis. 1, 2, or 3 fl oz of fermentation product was applied onto 135 lb N/A (nitrogen equivalent per acre) urea fertilizer in a concrete mixer, and allowed to mix for 1 minute. A urea control treatment without fermentation media was also created. An addition treatment that contained 64 fl oz/ton N-Butyl-thiophosphoric triamide (NBPT) nitrogen stabilizer or 64 fl oz/ton NBPT nitrogen stabilizer with 3 fl oz/A EstA fermentation product was also included in the trial. Urea, alone or with fermentation media was distributed across 4 small replicated plots each prior to planting of corn with 4 replicates of 400 ft2 each at each site.
structure (smiles),measurement,setting,value
"CCCCNP(N)(N)=S [NBPT, N-Butyl-thiophosphoric triamide, reference compound]",Yield,base control 188.2,191.2 Bu/A
same,Yield,base control 11830.4,12022.3 Kg/ha
